Measured values published in ChEMBL document CHEMBL5584296, “Discovery of Novel Pyrimidine-Based Derivatives as Nav1.2 Inhibitors with Efficacy in Mouse Models of Epilepsy” (J Med Chem, 2024).

Legend:
[1] = Half-life in male ICR mouse at 10 mg/kg, ip measured after 24 hrs by LC-MS/MS analysis; format: ADME, organism-based; settings: in vivo
[2] = test system: Mus musculus; assay: Antiepileptic activity in MES-induced seizure male ICR mouse model assessed as protection against tonic hind limb extension administered intraperitoneally for 30 mins; format: functional; settings: 0.5 h, route ip
[3] = Neurotoxicity in male ICR mouse assessed as motor impairment at 20 mg/kg, ip administered for 30 mins by rotarod test relative to control; format: toxicity, organism-based; settings: in vivo, 0.5 h
[4] = target: T1, Sodium channel protein type 2 subunit alpha (Homo sapiens, UniProt Q99250); assay: Inhibition of human Nav1.2 expressed in HEK293 cells assessed as test to control ratio at 10 uM measured after 5 mins by whole cell voltage clamp electrophysiological analysis; format: cell-based
Target sequence in this assay (Q99250 whole entry, looked up): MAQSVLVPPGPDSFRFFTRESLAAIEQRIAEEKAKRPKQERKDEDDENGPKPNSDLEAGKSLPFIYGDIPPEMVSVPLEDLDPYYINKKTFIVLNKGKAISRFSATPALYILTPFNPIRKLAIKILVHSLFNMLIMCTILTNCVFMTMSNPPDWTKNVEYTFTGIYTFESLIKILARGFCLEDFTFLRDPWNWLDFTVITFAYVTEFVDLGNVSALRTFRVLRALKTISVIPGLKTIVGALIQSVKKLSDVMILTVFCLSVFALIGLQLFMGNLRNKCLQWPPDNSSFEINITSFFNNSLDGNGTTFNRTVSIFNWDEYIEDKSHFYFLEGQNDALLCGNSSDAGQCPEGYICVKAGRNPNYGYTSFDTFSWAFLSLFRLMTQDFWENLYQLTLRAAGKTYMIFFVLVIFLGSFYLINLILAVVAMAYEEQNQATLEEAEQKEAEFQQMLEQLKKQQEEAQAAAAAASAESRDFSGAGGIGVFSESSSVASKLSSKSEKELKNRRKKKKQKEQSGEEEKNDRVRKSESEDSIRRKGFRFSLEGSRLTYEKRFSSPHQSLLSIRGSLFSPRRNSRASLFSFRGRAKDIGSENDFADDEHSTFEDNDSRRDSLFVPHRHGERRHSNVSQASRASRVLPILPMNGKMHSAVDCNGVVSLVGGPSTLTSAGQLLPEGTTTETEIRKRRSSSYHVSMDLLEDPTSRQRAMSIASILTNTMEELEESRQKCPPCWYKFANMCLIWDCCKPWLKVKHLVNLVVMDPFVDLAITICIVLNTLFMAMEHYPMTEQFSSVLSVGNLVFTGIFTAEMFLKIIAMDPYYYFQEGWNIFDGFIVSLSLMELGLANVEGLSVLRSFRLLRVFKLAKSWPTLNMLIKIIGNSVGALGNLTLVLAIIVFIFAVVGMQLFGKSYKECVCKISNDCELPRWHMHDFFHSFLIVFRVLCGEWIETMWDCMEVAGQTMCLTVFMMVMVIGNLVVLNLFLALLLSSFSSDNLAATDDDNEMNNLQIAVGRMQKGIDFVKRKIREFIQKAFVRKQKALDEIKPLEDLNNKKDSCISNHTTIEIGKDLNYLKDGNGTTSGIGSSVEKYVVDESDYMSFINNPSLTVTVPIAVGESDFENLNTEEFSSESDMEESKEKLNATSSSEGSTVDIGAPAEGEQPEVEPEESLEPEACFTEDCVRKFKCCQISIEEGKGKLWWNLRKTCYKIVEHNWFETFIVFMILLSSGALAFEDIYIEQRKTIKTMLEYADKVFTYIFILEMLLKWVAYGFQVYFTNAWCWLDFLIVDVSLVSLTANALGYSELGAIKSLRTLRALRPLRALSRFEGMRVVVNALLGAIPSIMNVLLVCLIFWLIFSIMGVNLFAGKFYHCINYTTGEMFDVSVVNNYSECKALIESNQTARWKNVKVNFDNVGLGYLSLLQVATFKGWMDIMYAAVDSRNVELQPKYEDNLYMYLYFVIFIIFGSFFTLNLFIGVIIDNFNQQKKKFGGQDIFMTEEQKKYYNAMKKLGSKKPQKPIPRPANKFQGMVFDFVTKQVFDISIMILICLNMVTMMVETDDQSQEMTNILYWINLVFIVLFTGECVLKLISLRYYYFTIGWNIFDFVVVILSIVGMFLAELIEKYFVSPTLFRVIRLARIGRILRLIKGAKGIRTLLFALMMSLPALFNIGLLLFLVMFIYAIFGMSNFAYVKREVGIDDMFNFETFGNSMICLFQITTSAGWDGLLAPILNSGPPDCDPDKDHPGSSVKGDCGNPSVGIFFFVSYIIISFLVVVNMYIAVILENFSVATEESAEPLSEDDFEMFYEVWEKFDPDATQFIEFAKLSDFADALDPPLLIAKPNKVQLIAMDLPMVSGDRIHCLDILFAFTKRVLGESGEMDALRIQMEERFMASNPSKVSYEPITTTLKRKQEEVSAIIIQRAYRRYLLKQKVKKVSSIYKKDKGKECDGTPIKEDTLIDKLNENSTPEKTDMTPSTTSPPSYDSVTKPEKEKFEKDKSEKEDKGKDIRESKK

[5] = AUC (0 to infinity) in male ICR mouse at 10 mg/kg, ip measured after 24 hrs by LC-MS/MS analysis; format: ADME, organism-based; settings: in vivo
[6] = Drug concentration in male ICR mouse plasma at 20 mg/kg, po measured after 0.25 hrs by LC-MS/MS analysis; format: ADME, organism-based
[7] = Half-life in male ICR mouse at 1 mg/kg, iv measured after 24 hrs by LC-MS/MS analysis; format: ADME, organism-based; settings: in vivo
[8] = target: Sodium channel protein type 1 subunit alpha (Homo sapiens) (UniProt P35498); assay: Inhibition of human Nav1.1 expressed in HEK293 cells assessed as test to control ratio at 1 uM by whole cell voltage clamp electrophysiological analysis; format: cell-based
[9] = Cmax in male ICR mouse at 10 mg/kg, ip measured after 24 hrs by LC-MS/MS analysis; format: ADME, organism-based; settings: in vivo
[10] = AUC (0 to infinity) in male ICR mouse at 20 mg/kg, po measured after 24 hrs by LC-MS/MS analysis; format: ADME, organism-based; settings: in vivo
[11] = Half-life in male ICR mouse at 20 mg/kg, po measured after 24 hrs by LC-MS/MS analysis; format: ADME, organism-based; settings: in vivo
[12] = target: Sodium channel protein type 1 subunit alpha (Homo sapiens) (UniProt P35498); assay: Inhibition of human Nav1.1 expressed in HEK293 cells assessed as test to control ratio at 0.1 uM by whole cell voltage clamp electrophysiological analysis; format: cell-based
[13] = Bioavailability in male ICR mouse at 10 mg/kg, ip measured after 24 hrs by LC-MS/MS analysis; format: ADME, organism-based; settings: in vivo
[14] = Drug concentration in male ICR mouse cerebrospinal fluid at 10 mg/kg, ip measured after 0.25 hrs by LC-MS/MS analysis; format: ADME, organism-based; settings: read-out: Ct
[15] = target: T1, Sodium channel protein type 2 subunit alpha; assay: Inhibition of human Nav1.2 expressed in HEK293 cells assessed as test to control ratio at 1 uM measured after 5 mins by whole cell voltage clamp electrophysiological analysis; format: cell-based
Target sequence in this assay (Q99250 whole entry, looked up): as above

[16] = Neurotoxicity in male ICR mouse administered intraperitoneally for 30 mins; format: toxicity; settings: in vivo, route ip
[17] = Drug concentration in male ICR mouse brain at 10 mg/kg, ip measured after 0.25 hrs by LC-MS/MS analysis; format: ADME, organism-based; settings: read-out: Ct
[18] = target: T1, Sodium channel protein type 2 subunit alpha; assay: Inhibition of human Nav1.2 expressed in HEK293 cells assessed as effect on steady state activation by measuring half activation potential at 10 uM (reference value: -33 mV); format: cell-based
Target sequence in this assay (Q99250 whole entry, looked up): as above

[19] = target: T1, Sodium channel protein type 2 subunit alpha; assay: Inhibition of human Nav1.2 expressed in HEK293 cells assessed as effect on steady state inactivation by measuring half activation potential at 10 uM (reference value: -65 mV); format: cell-based
Target sequence in this assay (Q99250 whole entry, looked up): as above

[20] = target: T2, Sodium channel protein type 5 subunit alpha (Homo sapiens, UniProt Q14524); assay: Inhibition of human Nav1.5 expressed in CHL cells assessed as test to control ratio at 0.1 uM by whole cell voltage clamp electrophysiological analysis; format: cell-based
T2 sequence (Q14524 whole entry): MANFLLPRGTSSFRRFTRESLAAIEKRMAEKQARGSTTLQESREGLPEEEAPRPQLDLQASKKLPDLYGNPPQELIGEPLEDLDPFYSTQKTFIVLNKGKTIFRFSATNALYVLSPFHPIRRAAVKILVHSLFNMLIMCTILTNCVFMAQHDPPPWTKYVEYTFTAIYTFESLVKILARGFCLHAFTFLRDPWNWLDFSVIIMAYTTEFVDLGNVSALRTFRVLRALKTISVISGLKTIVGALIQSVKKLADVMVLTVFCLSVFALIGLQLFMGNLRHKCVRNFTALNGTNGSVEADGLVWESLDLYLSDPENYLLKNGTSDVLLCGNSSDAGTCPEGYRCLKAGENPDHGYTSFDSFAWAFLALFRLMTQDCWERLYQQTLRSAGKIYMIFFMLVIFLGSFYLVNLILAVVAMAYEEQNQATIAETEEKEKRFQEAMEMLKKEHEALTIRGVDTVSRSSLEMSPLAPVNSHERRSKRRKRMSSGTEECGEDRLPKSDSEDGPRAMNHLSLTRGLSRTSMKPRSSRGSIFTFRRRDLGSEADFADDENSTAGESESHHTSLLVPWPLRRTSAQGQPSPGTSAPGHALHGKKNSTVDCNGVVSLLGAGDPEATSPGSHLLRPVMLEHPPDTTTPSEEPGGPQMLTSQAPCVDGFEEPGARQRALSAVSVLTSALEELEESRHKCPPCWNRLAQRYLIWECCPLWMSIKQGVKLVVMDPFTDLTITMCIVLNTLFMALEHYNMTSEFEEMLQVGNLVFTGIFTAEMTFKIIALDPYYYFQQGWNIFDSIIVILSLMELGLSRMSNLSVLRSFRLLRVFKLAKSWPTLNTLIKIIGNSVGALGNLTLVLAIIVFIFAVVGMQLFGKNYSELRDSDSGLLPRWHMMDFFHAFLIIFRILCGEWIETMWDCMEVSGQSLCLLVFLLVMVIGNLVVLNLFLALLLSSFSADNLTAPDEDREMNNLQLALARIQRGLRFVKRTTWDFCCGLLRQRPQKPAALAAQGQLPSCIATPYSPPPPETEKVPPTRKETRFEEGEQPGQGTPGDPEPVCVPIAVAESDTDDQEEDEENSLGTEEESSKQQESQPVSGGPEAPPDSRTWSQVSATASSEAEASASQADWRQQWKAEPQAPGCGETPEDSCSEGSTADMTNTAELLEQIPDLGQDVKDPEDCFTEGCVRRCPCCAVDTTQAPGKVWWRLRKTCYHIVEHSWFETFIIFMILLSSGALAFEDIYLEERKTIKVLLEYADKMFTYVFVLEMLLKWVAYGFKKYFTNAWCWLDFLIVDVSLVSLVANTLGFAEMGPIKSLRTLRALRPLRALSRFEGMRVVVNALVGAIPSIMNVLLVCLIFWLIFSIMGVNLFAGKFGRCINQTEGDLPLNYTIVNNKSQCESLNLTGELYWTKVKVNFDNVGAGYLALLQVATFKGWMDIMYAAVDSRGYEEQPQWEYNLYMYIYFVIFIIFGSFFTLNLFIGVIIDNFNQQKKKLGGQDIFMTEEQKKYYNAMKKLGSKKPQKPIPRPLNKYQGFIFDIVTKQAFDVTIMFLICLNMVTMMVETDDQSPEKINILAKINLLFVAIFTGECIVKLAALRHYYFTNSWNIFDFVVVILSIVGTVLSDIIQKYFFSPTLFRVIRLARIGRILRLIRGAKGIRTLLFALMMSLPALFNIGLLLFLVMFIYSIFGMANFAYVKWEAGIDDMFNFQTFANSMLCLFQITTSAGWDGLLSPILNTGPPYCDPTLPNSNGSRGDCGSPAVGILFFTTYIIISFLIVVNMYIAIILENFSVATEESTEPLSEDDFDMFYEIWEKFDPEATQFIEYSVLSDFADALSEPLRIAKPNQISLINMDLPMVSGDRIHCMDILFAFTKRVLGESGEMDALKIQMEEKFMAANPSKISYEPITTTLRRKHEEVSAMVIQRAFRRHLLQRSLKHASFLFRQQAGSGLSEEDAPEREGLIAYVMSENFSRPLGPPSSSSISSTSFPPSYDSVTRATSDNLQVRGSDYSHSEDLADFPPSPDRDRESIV

[21] = Tmax in male ICR mouse at 10 mg/kg, ip measured after 24 hrs by LC-MS/MS analysis; format: ADME, organism-based; settings: in vivo
[22] = Drug concentration in male ICR mouse plasma at 20 mg/kg, po measured after 0.5 hrs by LC-MS/MS analysis; format: ADME, organism-based
[23] = test system: Mus musculus; assay: Antiepileptic activity in 6 Hz(32 mA)-induced seizure male C57BL mouse model assessed as protection against seizure at 50 mg/kg, ip administered for 30 mins by epilepsy test; format: functional; settings: 0.5 h
[24] = Drug concentration in male ICR mouse plasma at 10 mg/kg, ip measured after 0.5 hrs by LC-MS/MS analysis; format: ADME, organism-based
[25] = Cmax in male ICR mouse at 1 mg/kg, iv measured after 24 hrs by LC-MS/MS analysis; format: ADME, organism-based; settings: in vivo
[26] = Clearance in male ICR mouse at 1 mg/kg, iv measured after 24 hrs by LC-MS/MS analysis; format: ADME, organism-based; settings: in vivo
[27] = MRT (0 to infinity) in male ICR mouse at 20 mg/kg, po measured after 24 hrs by LC-MS/MS analysis; format: ADME, organism-based; settings: in vivo
[28] = Ratio of drug concentration in male ICR mouse brain to plasma at 20 mg/kg, po measured after 0.25 hrs by LC-MS/MS analysis; format: ADME, organism-based; settings: read-out: BPR
[29] = Oral bioavailability in male ICR mouse at 20 mg/kg measured after 24 hrs by LC-MS/MS analysis; format: ADME, organism-based; settings: in vivo
[30] = target: T1, Sodium channel protein type 2 subunit alpha; assay: Inhibition of human Nav1.2 expressed in HEK293 cells at -120 mv holding potential measured after 5 mins by whole cell voltage clamp electrophysiological analysis; format: cell-based
Target sequence in this assay (Q99250 whole entry): as the sequence (Q99250 whole entry, looked up) above

[31] = test system: Mus musculus; assay: Antiepileptic activity in 6 Hz(32 mA)-induced seizure male C57BL mouse model assessed as reduction in seizure time at 100 mg/kg, ip administered for 30 mins by epilepsy test (reference value: 22.7 +/- 1.6 sec); format: functional; settings: 0.5 h
[32] = test system: Mus musculus; assay: Antiepileptic activity in MES-induced seizure male ICR mouse model assessed as protection against tonic hind limb extension at 10 mg/kg, ip measured after 30 mins relative to control; format: functional; settings: 0.5 h
[33] = Tmax in male ICR mouse at 1 mg/kg, iv measured after 24 hrs by LC-MS/MS analysis; format: ADME, organism-based; settings: in vivo
[34] = Drug concentration in male ICR mouse plasma at 10 mg/kg, ip measured after 0.25 hrs by LC-MS/MS analysis; format: ADME, organism-based
[35] = target: T2, Sodium channel protein type 5 subunit alpha; assay: Inhibition of human Nav1.5 expressed in CHL cells assessed as test to control ratio at 1 uM by whole cell voltage clamp electrophysiological analysis; format: cell-based
[36] = Drug concentration in male ICR mouse brain at 20 mg/kg, po measured after 0.5 hrs by LC-MS/MS analysis; format: ADME, organism-based; settings: read-out: Ct
[37] = test system: Mus musculus; assay: Antiepileptic activity in MES-induced seizure male ICR mouse model assessed as protection against tonic hind limb extension at 5 mg/kg, ip measured after 30 mins relative to control; format: functional; settings: 0.5 h
[38] = Drug concentration in male ICR mouse brain at 10 mg/kg, ip measured after 0.5 hrs by LC-MS/MS analysis; format: ADME, organism-based; settings: read-out: Ct
[39] = MRT (0 to infinity) in male ICR mouse at 10 mg/kg, ip measured after 24 hrs by LC-MS/MS analysis; format: ADME, organism-based; settings: in vivo
[40] = Drug concentration in male ICR mouse cerebrospinal fluid at 20 mg/kg, po measured after 0.25 hrs by LC-MS/MS analysis; format: ADME, organism-based; settings: read-out: Ct
[41] = target: T1, Sodium channel protein type 2 subunit alpha; assay: Inhibition of human Nav1.2 expressed in HEK293 cells at 0.1 uM measured after 5 mins by whole cell voltage clamp electrophysiological analysis relative to control; format: cell-based
Target sequence in this assay (Q99250 whole entry, looked up): as above

Question: Which half-life [1] does the source give for COc1cccc(-c2cc(N3CCCc4ccccc4C3)nc(N)n2)c1 here?
Answer: 56.4 min

Question: What about the ED50 [2] of the same compound?
Answer: 3.2 mg/kg

Question: And the Activity [3]?
Answer: 13%

Question: What about the T/C [4] of the same compound?
Answer: 0.02

Question: What about the AUC(0-inf) [5] of the same compound?
Answer: 793 ng·h/mL

Question: And the concentration at 0.25 h [6]?
Answer: 166 ng/mL

Question: And the half-life [7]?
Answer: 31.2 min

Question: What about the T/C [8] of the same compound?
Answer: 0.03

Question: And the Cmax [9]?
Answer: 956 ng/mL

Question: And the AUC(0-inf) [10]?
Answer: 118 ng·h/mL

Question: And the half-life [11]?
Answer: 82.8 min

Question: What about the T/C [12] of the same compound?
Answer: 0.65

Question: What about the bioavailability [13] of the same compound?
Answer: 43%

Question: And the concentration at 0.25 h [14]?
Answer: 11.7 ng/g

Question: What about the T/C [15] of the same compound?
Answer: 0.03

Question: And the TD50 at 0.5 h [16]?
Answer: 26.1 mg/kg

Question: What about the concentration at 0.25 h [17] of the same compound?
Answer: 1900 ng/g

Question: What about the V1/2 [18] of the same compound?
Answer: -31 mV

Question: What about the V1/2 [19] of the same compound?
Answer: -77 mV

Question: And the T/C [20]?
Answer: 0.87

Question: What about the Tmax [21] of the same compound?
Answer: 7.2 min

Question: What about the concentration at 0.5 h [22] of the same compound?
Answer: 18.3 ng/mL

Question: And the Activity [23]?
Answer: 0%

Question: And the concentration at 0.5 h [24]?
Answer: 221 ng/mL

Question: And the Cmax [25]?
Answer: 389 ng/mL

Question: What about the clearance [26] of the same compound?
Answer: 92.1 mL/min/kg

Question: And the MRT inf [27]?
Answer: 130 min

Question: What about the Kp at 0.25 h [28] of the same compound?
Answer: 3.9

Question: What about the bioavailability [29] of the same compound?
Answer: 3%

Question: What about the IC50 [30] of the same compound?
Answer: 11 µM

Question: What about the Time [31] of the same compound?
Answer: 12.9 s

Question: What about the Activity [32] of the same compound?
Answer: 88%

Question: And the Tmax [33]?
Answer: 3 min

Question: What about the concentration at 0.25 h [34] of the same compound?
Answer: 620 ng/mL

Question: And the T/C [35]?
Answer: 0.06

Question: And the concentration at 0.5 h [36]?
Answer: 59.3 ng/g

Question: What about the Activity [37] of the same compound?
Answer: 80%

Question: And the concentration at 0.5 h [38]?
Answer: 800 ng/g

Question: And the MRT inf [39]?
Answer: 51 min

Question: And the concentration at 0.25 h [40]?
Answer: 22.1 ng/g

Question: And the inhibition [41]?
Answer: 40%
